The source of these data is ChEMBL document CHEMBL5046278, “Synthesis and Evaluation of Novel Tetrahydronaphthyridine CXCR4 Antagonists with Improved Drug-like Profiles” (J Med Chem, 2022).

Series [1] in a line: Half life in mouse at 3 mg/kg, iv measured after 8 hrs by LC-MS/MS analysis. The series is classed as ADME, organism-based. Particulars: in vivo.
Series [2] can be described thus: Volume of distribution in mouse at 3 mg/kg, measured at 24 hrs by LC-MS analysis. The series is classed as ADME, organism-based. The conditions noted are these: in vivo.
Series [3] in a line: Drug concentration in mouse plasma at 30 mg/kg, po measured at 12 hrs by LC-MS analysis. The series is classed as ADME, organism-based.
Series [4] can be described thus: AUC(0 to 8 h) in mouse plasma at 30 mg/kg, po measured at 24 hrs by LC-MS/MS analysis. Particulars: in vivo. The series is classed as ADME, organism-based. More on the design: route oral, time 24 hrs, dose 30 mg/kg.
Series [5] can be described thus: Oral bioavailability in mouse at 3 mg/kg measured at 24 hrs by LC-MS/MS analysis. The series is classed as ADME, organism-based. The conditions noted are these: in vivo.
A short description of series [6]: Oral bioavailability in mouse at 30 mg/kg measured at 24 hrs by LC-MS/MS analysis. The series is classed as ADME, organism-based. The conditions noted are these: in vivo.
Series [7] concerns the target Neuronal acetylcholine receptor subunit alpha-7 (Homo sapiens, UniProt P36544). Put plainly: Inhibition of alpha7 nicotinic acetylcholine receptor (unknown origin).
Series [8] deals with D(2) dopamine receptor (Homo sapiens, UniProt P14416). Briefly: Inhibition of dopamine D2 receptor (unknown origin).
Sequence of D(2) dopamine receptor (P14416 whole entry): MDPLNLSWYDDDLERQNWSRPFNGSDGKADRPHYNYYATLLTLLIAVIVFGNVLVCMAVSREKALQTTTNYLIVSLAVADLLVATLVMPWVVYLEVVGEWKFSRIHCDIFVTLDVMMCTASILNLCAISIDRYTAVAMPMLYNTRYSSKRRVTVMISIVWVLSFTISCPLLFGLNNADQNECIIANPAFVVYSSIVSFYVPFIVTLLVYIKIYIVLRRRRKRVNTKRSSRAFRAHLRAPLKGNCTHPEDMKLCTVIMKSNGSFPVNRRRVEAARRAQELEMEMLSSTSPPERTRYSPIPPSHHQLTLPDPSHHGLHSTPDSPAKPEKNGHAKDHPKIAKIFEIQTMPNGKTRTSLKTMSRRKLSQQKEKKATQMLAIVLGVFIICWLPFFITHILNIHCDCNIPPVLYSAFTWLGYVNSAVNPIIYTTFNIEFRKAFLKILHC
The target of series [9] is Kappa-type opioid receptor (Homo sapiens, UniProt P41145). Put plainly: Inhibition of kappa opioid receptor (unknown origin).
Sequence of Kappa-type opioid receptor (P41145 whole entry): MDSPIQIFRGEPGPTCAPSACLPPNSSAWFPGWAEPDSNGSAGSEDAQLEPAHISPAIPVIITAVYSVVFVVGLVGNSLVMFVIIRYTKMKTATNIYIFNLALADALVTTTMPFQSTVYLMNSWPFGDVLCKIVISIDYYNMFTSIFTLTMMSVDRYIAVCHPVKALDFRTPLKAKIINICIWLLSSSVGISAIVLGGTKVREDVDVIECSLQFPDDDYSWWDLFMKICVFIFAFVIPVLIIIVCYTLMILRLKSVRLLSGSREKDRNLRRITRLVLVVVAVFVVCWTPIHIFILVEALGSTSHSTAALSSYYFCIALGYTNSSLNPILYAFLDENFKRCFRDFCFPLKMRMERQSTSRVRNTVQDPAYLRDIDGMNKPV
Series [10] can be described thus: AUC(0 to 8 h)in mouse plasma at 3 mg/kg, po measured at 24 hrs by LC-MS/MS analysis. The conditions noted are these: in vivo. More on the design: route oral, dose 3 mg/kg, time 24 hrs. The series is classed as ADME, organism-based.
In series [11] the target is T1, Muscarinic acetylcholine receptor M2 (Homo sapiens, UniProt P08172).
T1 sequence (P08172 whole entry): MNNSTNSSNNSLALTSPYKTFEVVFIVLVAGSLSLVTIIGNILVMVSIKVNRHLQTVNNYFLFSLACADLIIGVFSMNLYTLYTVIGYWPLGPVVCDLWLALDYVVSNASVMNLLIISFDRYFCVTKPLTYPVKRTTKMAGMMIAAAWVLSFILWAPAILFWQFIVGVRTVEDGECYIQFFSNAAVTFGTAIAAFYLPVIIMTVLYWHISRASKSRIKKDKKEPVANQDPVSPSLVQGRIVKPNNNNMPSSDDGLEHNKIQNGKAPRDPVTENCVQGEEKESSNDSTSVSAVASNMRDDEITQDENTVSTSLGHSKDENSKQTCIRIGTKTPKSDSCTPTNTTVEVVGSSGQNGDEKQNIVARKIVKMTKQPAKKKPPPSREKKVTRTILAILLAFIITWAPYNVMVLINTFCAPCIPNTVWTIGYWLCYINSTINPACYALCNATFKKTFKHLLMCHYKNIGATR
Put plainly: Inhibition of M2 mAChR receptor (unknown origin).

Series [12] deals with Mu-type opioid receptor (Homo sapiens, UniProt P35372). Briefly: Inhibition of mu opioid receptor (unknown origin).
Sequence of Mu-type opioid receptor (P35372 whole entry): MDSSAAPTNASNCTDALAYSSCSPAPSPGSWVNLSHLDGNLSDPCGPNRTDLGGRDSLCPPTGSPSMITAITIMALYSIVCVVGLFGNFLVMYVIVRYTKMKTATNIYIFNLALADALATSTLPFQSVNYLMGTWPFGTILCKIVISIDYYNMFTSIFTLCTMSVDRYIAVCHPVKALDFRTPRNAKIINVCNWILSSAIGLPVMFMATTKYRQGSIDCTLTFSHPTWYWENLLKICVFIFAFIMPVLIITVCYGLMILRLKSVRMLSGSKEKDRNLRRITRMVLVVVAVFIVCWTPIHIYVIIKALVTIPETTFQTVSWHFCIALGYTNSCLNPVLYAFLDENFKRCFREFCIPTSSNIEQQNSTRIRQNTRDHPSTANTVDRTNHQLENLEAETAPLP
A short description of series [13]: AUC(0 to 8 h) in mouse plasma at 3 mg/kg, iv measured at 24 hrs by LC-MS/MS analysis. The series is classed as ADME, organism-based. Further details: route intravenous, time 24 hrs, dose 3 mg/kg. The conditions noted are these: in vivo.
Series [14] addresses T2, Alpha-2A adrenergic receptor (Homo sapiens, UniProt P08913).
T2 sequence (P08913 whole entry): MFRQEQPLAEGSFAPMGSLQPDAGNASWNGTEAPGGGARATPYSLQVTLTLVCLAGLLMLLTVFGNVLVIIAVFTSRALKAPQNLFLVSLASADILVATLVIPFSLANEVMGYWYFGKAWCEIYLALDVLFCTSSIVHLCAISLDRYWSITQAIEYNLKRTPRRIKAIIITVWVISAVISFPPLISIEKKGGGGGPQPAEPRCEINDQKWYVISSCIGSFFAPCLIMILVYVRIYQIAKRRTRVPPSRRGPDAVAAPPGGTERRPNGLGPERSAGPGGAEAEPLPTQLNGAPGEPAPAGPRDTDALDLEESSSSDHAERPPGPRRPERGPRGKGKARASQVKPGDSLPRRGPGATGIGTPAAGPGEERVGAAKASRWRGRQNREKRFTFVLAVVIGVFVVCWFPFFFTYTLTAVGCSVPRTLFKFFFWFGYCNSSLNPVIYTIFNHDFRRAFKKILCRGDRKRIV
Put plainly: Inhibition of alpha 2A adrenergic receptor (unknown origin).

Series [15] in a line: Metabolic stability in rat liver microsomes assessed compound remaining measured after 10 mins in presence of NADPH. The conditions noted are these: read-out: Stability. The series is classed as ADME, Microsome.
A short description of series [16]: Antagonist activity at mAChR (unknown origin) expressed in CCRF-CEM cells assessed as inhibition of calcium release by calcium flux assay. The series is classed as cell-based. The conditions noted are these: Homo sapiens.
Series [17] has as its system Human immunodeficiency virus 1. Briefly: Antiviral activity against HIV-1 Z1800M E4.02 (R5) pseudovirus infected in human TZM-blcells assessed as reduction in viral infectivity measured after 48 hrs of postinfection by luminescence assay. The series is classed as functional, organism-based. Particulars: Human immunodeficiency virus 1, Z1800M E4.02 (R5), TZM-bl.
Series [18] deals with T3, Alpha-2C adrenergic receptor (Homo sapiens, UniProt P18825).
T3 sequence (P18825 whole entry): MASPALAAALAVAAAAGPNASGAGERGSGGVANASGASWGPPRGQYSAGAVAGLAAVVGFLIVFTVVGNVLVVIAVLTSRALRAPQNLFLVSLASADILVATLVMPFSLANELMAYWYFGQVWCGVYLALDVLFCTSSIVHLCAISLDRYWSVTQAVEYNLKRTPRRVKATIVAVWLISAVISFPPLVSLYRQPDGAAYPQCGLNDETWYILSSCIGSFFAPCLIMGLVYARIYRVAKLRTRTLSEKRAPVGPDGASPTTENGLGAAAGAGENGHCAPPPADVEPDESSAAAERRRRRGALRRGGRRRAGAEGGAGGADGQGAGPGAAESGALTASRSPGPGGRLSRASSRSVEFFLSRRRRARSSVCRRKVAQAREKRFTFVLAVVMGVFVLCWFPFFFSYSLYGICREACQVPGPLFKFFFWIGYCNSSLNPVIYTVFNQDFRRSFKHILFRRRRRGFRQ
Briefly: Inhibition of alpha 2C adrenergic receptor (unknown origin).

Series [19] relates to Human immunodeficiency virus 1. Put plainly: Antiviral activity against HIV-1 NL4-3(X4) pseudovirus infected in human TZM-bl cells assessed as reduction in viral infectivity measured after 48 hrs of postinfection by luminescence assay. The series is classed as functional, organism-based. The conditions noted are these: Human immunodeficiency virus 1, NL4-3(X4).
A short description of series [20]: Antagonist activity at human CXCR4 receptor expressed in CCRF-CEM cells assessed as inhibition of CXCL12-induced calcium release by calcium flux assay. The series is classed as cell-based.
Series [21] is described as follows: Metabolic stability in mouse liver microsomes assessed compound remaining measured after 10 mins in presence of NADPH. The series is classed as ADME, Microsome. Particulars: read-out: Stability.
Series [22] concerns the target Voltage-gated inwardly rectifying potassium channel KCNH2 (Homo sapiens, UniProt Q12809). Briefly: Inhibition of human ERG by [3H]]Astemizole binding assay. The series is classed as toxicity.
The target of series [23] is Cytochrome P450 2D6 (Homo sapiens, UniProt P10635). Briefly: Inhibition of recombinant human CYP2D6 using AMMC as substrate preincubated for 30 mins followed by substrate addition measured after 45 mins by fluorescence based assay. The series is classed as ADME.
Sequence of Cytochrome P450 2D6 (P10635 whole entry): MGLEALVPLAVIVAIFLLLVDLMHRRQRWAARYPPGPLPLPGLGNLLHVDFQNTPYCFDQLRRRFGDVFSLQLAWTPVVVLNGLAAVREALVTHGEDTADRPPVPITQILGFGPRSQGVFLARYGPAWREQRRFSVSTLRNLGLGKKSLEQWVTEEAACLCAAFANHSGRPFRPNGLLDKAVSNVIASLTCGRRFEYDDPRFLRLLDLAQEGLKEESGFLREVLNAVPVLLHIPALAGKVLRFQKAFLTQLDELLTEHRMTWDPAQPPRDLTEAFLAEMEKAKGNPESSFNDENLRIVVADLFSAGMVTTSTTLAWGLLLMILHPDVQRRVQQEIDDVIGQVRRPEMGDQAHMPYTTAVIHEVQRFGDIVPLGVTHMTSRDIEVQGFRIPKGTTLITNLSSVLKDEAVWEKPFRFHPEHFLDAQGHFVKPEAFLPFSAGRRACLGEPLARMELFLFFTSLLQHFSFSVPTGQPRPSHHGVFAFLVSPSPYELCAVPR
A short description of series [24]: Permeability of compound at pH 7.4 incubated for 4 hrs by PAMPA assay. The series is classed as ADME. Particulars: read-out: permeability.
A short description of series [25]: Metabolic stability in human liver microsomes assessed compound remaining measured after 10 mins in presence of NADPH. The series is classed as ADME, Microsome. Particulars: read-out: Stability.
Series [26] can be described thus: Cytotoxicity against human TZM-bl cells assessed as reduction in cell viability incubated for 4 hrs by […] assay. The series is classed as toxicity, cell-based. Particulars: read-out: TC50.
The nature of series [27]: Permeability of compound at pH 5.5 incubated for 4 hrs by PAMPA assay. The series is classed as ADME. The conditions noted are these: read-out: permeability.

Sequence of Neuronal acetylcholine receptor subunit alpha-7 (P36544 whole entry): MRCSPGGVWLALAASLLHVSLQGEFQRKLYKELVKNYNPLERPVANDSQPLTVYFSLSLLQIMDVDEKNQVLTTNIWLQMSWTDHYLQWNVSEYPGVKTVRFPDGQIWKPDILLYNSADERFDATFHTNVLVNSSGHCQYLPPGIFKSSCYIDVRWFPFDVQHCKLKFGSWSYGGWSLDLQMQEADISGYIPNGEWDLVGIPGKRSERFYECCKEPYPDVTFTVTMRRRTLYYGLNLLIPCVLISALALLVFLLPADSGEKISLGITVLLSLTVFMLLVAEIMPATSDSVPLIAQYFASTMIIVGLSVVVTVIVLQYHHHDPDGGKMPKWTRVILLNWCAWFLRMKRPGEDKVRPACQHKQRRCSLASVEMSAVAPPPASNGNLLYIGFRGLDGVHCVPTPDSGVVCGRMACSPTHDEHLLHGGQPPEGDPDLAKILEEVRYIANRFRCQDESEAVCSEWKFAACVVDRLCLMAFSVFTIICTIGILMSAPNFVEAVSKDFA
Sequence of Voltage-gated inwardly rectifying potassium channel KCNH2 (Q12809 whole entry): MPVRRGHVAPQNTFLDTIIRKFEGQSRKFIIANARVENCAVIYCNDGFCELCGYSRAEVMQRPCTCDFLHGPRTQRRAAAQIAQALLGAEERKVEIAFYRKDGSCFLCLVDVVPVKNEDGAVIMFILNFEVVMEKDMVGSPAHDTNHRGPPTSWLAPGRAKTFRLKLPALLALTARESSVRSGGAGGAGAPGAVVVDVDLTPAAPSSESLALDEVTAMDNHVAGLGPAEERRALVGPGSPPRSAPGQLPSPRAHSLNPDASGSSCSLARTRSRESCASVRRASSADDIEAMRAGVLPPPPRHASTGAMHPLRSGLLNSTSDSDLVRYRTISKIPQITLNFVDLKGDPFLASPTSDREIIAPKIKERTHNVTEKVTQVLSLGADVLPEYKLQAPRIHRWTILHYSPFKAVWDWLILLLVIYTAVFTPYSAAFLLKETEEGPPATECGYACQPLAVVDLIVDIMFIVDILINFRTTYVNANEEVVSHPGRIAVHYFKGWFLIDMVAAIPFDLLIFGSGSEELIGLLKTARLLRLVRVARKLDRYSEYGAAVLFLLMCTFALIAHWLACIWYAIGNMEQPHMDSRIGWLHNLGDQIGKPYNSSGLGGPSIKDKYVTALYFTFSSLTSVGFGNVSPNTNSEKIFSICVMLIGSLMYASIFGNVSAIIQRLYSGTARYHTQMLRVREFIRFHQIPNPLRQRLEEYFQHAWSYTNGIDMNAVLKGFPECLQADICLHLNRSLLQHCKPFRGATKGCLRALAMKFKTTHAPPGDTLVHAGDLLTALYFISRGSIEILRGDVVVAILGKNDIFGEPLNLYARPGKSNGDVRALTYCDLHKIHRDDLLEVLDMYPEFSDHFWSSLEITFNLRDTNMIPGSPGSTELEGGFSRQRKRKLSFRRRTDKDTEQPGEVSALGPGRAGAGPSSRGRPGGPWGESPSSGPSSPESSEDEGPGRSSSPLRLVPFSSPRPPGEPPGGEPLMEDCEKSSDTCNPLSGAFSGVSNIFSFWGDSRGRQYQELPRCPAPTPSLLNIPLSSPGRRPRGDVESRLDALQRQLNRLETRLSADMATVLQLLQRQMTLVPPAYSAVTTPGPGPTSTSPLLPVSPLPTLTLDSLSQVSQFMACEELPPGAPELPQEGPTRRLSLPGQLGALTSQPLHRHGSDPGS

In [1], `NCCCCN(Cc1nc2ccccc2[nH]1)[C@H]1CCCc2cccnc21` [MAVORIXAFOR] showed a half-life of 185 min. Further, the Vd in series [2] was found to be 32.2 L/kg. In series [3], this compound gave a concentration at 12 h of 2.2 ng/mL. Also, the AUC in series [4] was determined as 101 h/ng/mL; in series [10], 35.1 h/ng/mL; in [13], 415 h/ng/mL. Further, the bioavailability came to 2.54% in series [5] and 2.42% in [6]. The IC50 in [7] was greater than 30 µM; in series [8] it was 4.1 µM; in series [9], greater than 30 µM; in series [11], 7.5 µM; in series [12], 12 µM; in series [14], greater than 30000 nM.

Take `c1cnc2c(c1)CN[C@@H](CN(CCCCN1CCOCC1)[C@H]1CCCc3cccnc31)C2`: the remaining at 10 min in series [15] came to 39%; in series [21] it was 20%; in [25], 100%. The IC50 in [16] is greater than 33 µM; in [17], greater than 10 µM; in [18], 20 µM; in series [19], greater than 30 nM; in series [7] it was 11 µM; in series [20], 270 nM. Moreover, the IC50 in [8] is greater than 30 µM; in [9], greater than 30 µM; in series [22], 11 µM; in series [23], greater than 20 µM; in [11], greater than 30 µM; in series [12], greater than 30 µM. This compound also showed an IC50 in series [14] of 620 nM. For the same compound, the Papp at 4 h is 83 ×10⁻⁶ cm/s in series [24] and 1.2 ×10⁻⁶ cm/s in [27]. Also, the CC50 at 4 h in series [26] was greater than 10 µM.
